Data from article PMC12396409, “Screening and hit evaluation of a microbial metabolite library against the pathogenic Plasmodium falciparum and Toxoplasma gondii parasites” (International Journal for Parasitology: Drugs and Drug …, 2025).
Counter-ions that a name gives are not always drawn. Like-named read-outs stand apart in the source and are kept apart here.

Key:
[1] = test system: P. falciparum 3D7 parasites; test: P. falciparum growth inhibition assay, 1-cycle (72 h treatment), SYBR DNA staining (library screen at 2 μg/mL and dose-response); format: cell-based, Plasmodium falciparum; settings: for activity at 2 µg/mL: Plasmodium falciparum
[2] = test system: P. falciparum 3D7 parasites; test: P. falciparum growth inhibition assay, 2-cycle (120 h treatment), delayed-death screen and dose-response; format: cell-based, Plasmodium falciparum; settings: for activity at 2 µg/mL: Plasmodium falciparum
[3] = test system: T. gondii RH strain (RH-Tub-eYFP) tachyzoites; test: microbe, parasite or virus in culture; format: cell-based, Toxoplasma gondii; settings: 72 h; for percent parasite growth at 2 µg/mL: Toxoplasma gondii
[4] = P. falciparum, 72 h, screen at 2 μg/mL, replicate 1
[5] = P. falciparum, 72 h, screen at 2 μg/mL, replicate 2
[6] = P. falciparum, 120 h, screen at 2 μg/mL, replicate 1
[7] = P. falciparum, 120 h, screen at 2 μg/mL, replicate 2
[8] = T. gondii, screen at 2 μg/mL, replicate 1
[9] = T. gondii, screen at 2 μg/mL, replicate 2
[10] = 3D7, P. falciparum, 72 h, screen at 2 μg/mL, replicate 1, read-out: Pf_72h_%Growth_Rep1
[11] = 3D7, P. falciparum, 72 h, screen at 2 μg/mL, replicate 2, read-out: Pf_72h_%Growth_Rep2
[12] = 3D7, P. falciparum, 120 h, screen at 2 μg/mL, replicate 1, read-out: Pf_120h_%Growth_Rep1
[13] = 3D7, P. falciparum, 120 h, screen at 2 μg/mL, replicate 2, read-out: Pf_120h_%Growth_Rep2
[14] = library screen at 2 μg/mL, 72 h, % growth, replicate 1
[15] = library screen at 2 μg/mL, 72 h, % growth, replicate 2
[16] = library screen at 2 μg/mL, 120 h, % growth, replicate 1
[17] = library screen at 2 μg/mL, 120 h, % growth, replicate 2
[18] = library screen at 2 μg/mL, % growth, replicate 1
[19] = library screen at 2 μg/mL, % growth, replicate 2
[20] = P. falciparum, 72 h, parasite screen 2 μg/mL, % growth, replicate 1
[21] = P. falciparum, 72 h, parasite screen 2 μg/mL, % growth, replicate 2
[22] = P. falciparum, 120 h, parasite screen 2 μg/mL, % growth, replicate 1
[23] = P. falciparum, 120 h, parasite screen 2 μg/mL, % growth, replicate 2
[24] = T. gondii, parasite screen 2 μg/mL, % growth, replicate 1
[25] = T. gondii, parasite screen 2 μg/mL, % growth, replicate 2
[26] = T. gondii, screen at 2 μg/mL, replicate 1, read-out: Tg_72h_%Growth_Rep1
[27] = T. gondii, screen at 2 μg/mL, replicate 2, read-out: Tg_72h_%Growth_Rep2

CC(C)=CC(=O)C[C@H](C)c1ccc(C)cc1 [Turmerone]
Pf_72h_%Growth_Rep1 [1, 4]: 81.95%
Pf_72h_%Growth_Rep2 [1, 5]: 115.94%
Pf_120h_%Growth_Rep1 [2, 6]: 78.99%
Pf_120h_%Growth_Rep2 [2, 7]: 84.67%
Tg_72h_%Growth_Rep1 [3, 8]: 108.84%
Tg_72h_%Growth_Rep2 [3, 9]: 94.24%

NC(=O)C=Cc1ccccc1 [Cinnamamide]
activity at 2 µg/mL [1, 10]: 95%
activity at 2 µg/mL [1, 11]: 81.9%
activity at 2 µg/mL [2, 12]: 152%
activity at 2 µg/mL [2, 13]: 94.1%
percent parasite growth at 2 µg/mL ([3]; read-out: Tg_72h_%Growth_Rep1): 85.6%
percent parasite growth at 2 µg/mL ([3]; read-out: Tg_72h_%Growth_Rep2): 87.3%

Cinnamycin
Pf_72h_%Growth_Rep1 [1, 4]: 85.92%
Pf_72h_%Growth_Rep2 [1, 5]: 85.03%
Pf_120h_%Growth_Rep1 [2, 6]: 137.57%
Pf_120h_%Growth_Rep2 [2, 7]: 92.38%
Tg_72h_%Growth_Rep1 [3, 8]: 85.83%
Tg_72h_%Growth_Rep2 [3, 9]: 93.54%

CO[C@H]1C[C@H](O[C@@H]2/C(C)=C/C[C@@H]3C[C@@H](C[C@]4(CC[C@H](C)[C@@H](C5CCCCC5)O4)O3)OC(=O)[C@@H]3C=C(C)/C(=N/O)[C@H]4OC/C(=C\C=C\[C@@H]2C)[C@]43O)O[C@@H](C)[C@@H]1O [selamectin, reference compound]
selectivity for P. falciparum in the screens [1]: selective for P. falciparum
activity at 2 µg/mL ([1]; 3D7, P. falciparum, 72 h, parasite screen 2 μg/mL, % growth, replicate 1, read-out: Pf_72h_%Growth_Rep1): 3.56%
activity at 2 µg/mL ([1]; 3D7, P. falciparum, 72 h, parasite screen 2 μg/mL, % growth, replicate 2, read-out: Pf_72h_%Growth_Rep2): 6.13%
activity at 2 µg/mL ([2]; 3D7, P. falciparum, 120 h, parasite screen 2 μg/mL, % growth, replicate 1, read-out: Pf_120h_%Growth_Rep1): 2.99%
activity at 2 µg/mL ([2]; 3D7, P. falciparum, 120 h, parasite screen 2 μg/mL, % growth, replicate 2, read-out: Pf_120h_%Growth_Rep2): 8.34%
percent parasite growth at 2 µg/mL ([3]; read-out: Tg_72h_%Growth_Rep1): 116%
percent parasite growth at 2 µg/mL ([3]; read-out: Tg_72h_%Growth_Rep2): 78.2%

COC1=C(O)c2c(O)cc(C)c3c(O)cc(O)c(c23)C1=O [Funalenone]
Pf_72h_%Growth_Rep1 [1, 14]: 89.99%
Pf_72h_%Growth_Rep2 [1, 15]: 108.10%
Pf_120h_%Growth_Rep1 [2, 16]: 97.73%
Pf_120h_%Growth_Rep2 [2, 17]: 107.04%
Tg_72h_%Growth_Rep1 [3, 18]: 131.40%
Tg_72h_%Growth_Rep2 [3, 19]: 92.93%

CC1=C[C@H](O/C=C2/C(=O)O[C@@H]3c4ccccc4C[C@H]23)OC1=O [BIA-G1793]
Pf_72h_%Growth_Rep1 ([1]; P. falciparum 3D7, 72 h, library screen at 2 μg/mL, % growth, replicate 1): 84.39%
Pf_72h_%Growth_Rep2 ([1]; P. falciparum 3D7, 72 h, library screen at 2 μg/mL, % growth, replicate 2): 84.87%
Pf_120h_%Growth_Rep1 ([2]; P. falciparum 3D7, 120 h, library screen at 2 μg/mL, % growth, replicate 1): 86.54%
Pf_120h_%Growth_Rep2 ([2]; P. falciparum 3D7, 120 h, library screen at 2 μg/mL, % growth, replicate 2): 104.67%
Tg_72h_%Growth_Rep1 ([3]; T. gondii RH, library screen at 2 μg/mL, % growth, replicate 1): 120.90%
Tg_72h_%Growth_Rep2 ([3]; T. gondii RH, library screen at 2 μg/mL, % growth, replicate 2): 91.67%

CC(=O)O.CC(=O)O.CC[C@H](C)C[C@H](C)CCCCCCCCC(=O)N[C@H]1C[C@@H](O)[C@@H](NCCN)NC(=O)[C@@H]2[C@@H](O)CCN2C(=O)[C@H]([C@H](O)CCN)NC(=O)[C@H]([C@H](O)[C@@H](O)c2ccc(O)cc2)NC(=O)[C@@H]2C[C@@H](O)CN2C(=O)[C@H]([C@@H](C)O)NC1=O [Caspofungin acetate]
Pf_72h_%Growth_Rep1 [1, 4]: 37.83%
Pf_72h_%Growth_Rep2 [1, 5]: 84.89%
Pf_120h_%Growth_Rep1 [2, 6]: 148.27%
Pf_120h_%Growth_Rep2 [2, 7]: 78.66%
Tg_72h_%Growth_Rep1 [3, 8]: 95.80%
Tg_72h_%Growth_Rep2 [3, 9]: 93.96%

C[C@H]1C(=O)O[C@@H]2CCN3CC=C(COC(=O)[C@](C)(O)[C@]1(C)O)[C@H]23 [BIA-M1801]
Pf_72h_%Growth_Rep1 ([1]; P. falciparum 3D7, 72 h, parasite screen at 2 μg/mL, % growth, replicate 1): 85.52%
Pf_72h_%Growth_Rep2 ([1]; P. falciparum 3D7, 72 h, parasite screen at 2 μg/mL, % growth, replicate 2): 78.69%
Pf_120h_%Growth_Rep1 ([2]; P. falciparum 3D7, 120 h, parasite screen at 2 μg/mL, % growth, replicate 1): 81.80%
Pf_120h_%Growth_Rep2 ([2]; P. falciparum 3D7, 120 h, parasite screen at 2 μg/mL, % growth, replicate 2): 104.58%
Tg_72h_%Growth_Rep1 ([3]; T. gondii, parasite screen at 2 μg/mL, % growth, replicate 1): 108.79%
Tg_72h_%Growth_Rep2 ([3]; T. gondii, parasite screen at 2 μg/mL, % growth, replicate 2): 79.49%

Cc1cc(O)c2c(c1)C(=O)c1cc(O)cc(O)c1C2=O [Emodin]
activity at 2 µg/mL ([1]; 3D7, library screen at 2 μg/mL, 72 h, % growth, replicate 1, read-out: Pf_72h_%Growth_Rep1): 87.3%
activity at 2 µg/mL ([1]; 3D7, library screen at 2 μg/mL, 72 h, % growth, replicate 2, read-out: Pf_72h_%Growth_Rep2): 86.6%
activity at 2 µg/mL ([2]; 3D7, library screen at 2 μg/mL, 120 h, % growth, replicate 1, read-out: Pf_120h_%Growth_Rep1): 85.9%
activity at 2 µg/mL ([2]; 3D7, library screen at 2 μg/mL, 120 h, % growth, replicate 2, read-out: Pf_120h_%Growth_Rep2): 114%
percent parasite growth at 2 µg/mL ([3]; library screen at 2 μg/mL, % growth, replicate 1, read-out: Tg_72h_%Growth_Rep1): 116%
percent parasite growth at 2 µg/mL ([3]; library screen at 2 μg/mL, % growth, replicate 2, read-out: Tg_72h_%Growth_Rep2): 87.4%

COC(=O)[C@H]1NC(=O)[C@H]2NC(=O)[C@H](NC(=O)[C@@H]3NC(=O)[C@H]4NC(=O)[C@H](NC(=O)[C@H](N)c5ccc(O)c(c5)Oc5cc4cc(O)c5C)[C@H](O)c4ccc(cc4)Oc4cc3cc(c4O[C@@H]3O[C@H](COC4O[C@@H](C)[C@H](O)[C@@H](O)[C@H]4O)[C@@H](O)[C@H](O)[C@H]3O[C@@H]3O[C@@H](CO)[C@H](O)[C@@H](O)[C@H]3O[C@@H]3OC[C@@H](O)[C@@H](O)[C@@H]3O)Oc3ccc(cc3)[C@H]2O[C@@H]2C[C@@H](N)[C@@H](O)[C@H](C)O2)c2ccc(O)c(c2)-c2c(O[C@@H]3O[C@H](CO)[C@@H](O)[C@H](O)[C@@H]3O)cc(O)cc21 (some centres unmarked) [Ristocetin A sulfate]
Pf_72h_%Growth_Rep1 [1, 20]: 85.98%
Pf_72h_%Growth_Rep2 [1, 21]: 111.61%
Pf_120h_%Growth_Rep1 [2, 22]: 82.07%
Pf_120h_%Growth_Rep2 [2, 23]: 109.30%
Tg_72h_%Growth_Rep1 [3, 24]: 119.41%
Tg_72h_%Growth_Rep2 [3, 25]: 85.51%

C/C=C/[C@H]1O[C@@](O)([C@@H](C)[C@H](O)[C@H](C)[C@H]2OC(=O)/C(OC)=C/C(C)=C/[C@@H](C)[C@@H](O)[C@@H](CC)[C@@H](O)[C@H](C)C/C(C)=C/C=C/[C@@H]2OC)C[C@@H](O[C@H]2C[C@@H](O)[C@H](OC(N)=O)[C@@H](C)O2)[C@@H]1C [Concanamycin A]
activity at 2 µg/mL ([1]; 3D7, 72 h, P. falciparum, 72 h, screen at 2 μg/mL, replicate 1, read-out: Pf_72h_%Growth_Rep1): 2.64%
activity at 2 µg/mL ([1]; 3D7, 72 h, P. falciparum, 72 h, screen at 2 μg/mL, replicate 2, read-out: Pf_72h_%Growth_Rep2): 2.16%
activity at 2 µg/mL ([2]; 3D7, 120 h, P. falciparum, 120 h, screen at 2 μg/mL, replicate 1, read-out: Pf_120h_%Growth_Rep1): 0.77%
activity at 2 µg/mL ([2]; 3D7, 120 h, P. falciparum, 120 h, screen at 2 μg/mL, replicate 2, read-out: Pf_120h_%Growth_Rep2): 5.18%
percent parasite growth at 2 µg/mL [3, 26]: -1.66%
percent parasite growth at 2 µg/mL [3, 27]: 0.56%

Albofungin
Pf_72h_%Growth_Rep1 [1, 14]: 6.93%
Pf_72h_%Growth_Rep2 [1, 15]: 9.97%
Pf_120h_%Growth_Rep1 [2, 16]: -0.91%
Pf_120h_%Growth_Rep2 [2, 17]: 21.65%
Tg_72h_%Growth_Rep1 [3, 18]: -0.16%
Tg_72h_%Growth_Rep2 [3, 19]: 2.30%

CC(C)[C@H]1C(=O)OC[C@H](NC(=O)c2nc3ccccc3cc2O)C(=O)N2CCCC[C@@H]2C(=O)NCC(=O)N(C)CC(=O)N(C)[C@H](C(C)C)C(=O)OC[C@@H](NC(=O)c2nc3ccccc3cc2O)C(=O)N2CCCC[C@@H]2C(=O)NCC(=O)N(C)CC(=O)N1C [Sandramycin]
Pf_72h_%Growth_Rep1 [1, 20]: -1.10%
Pf_72h_%Growth_Rep2 [1, 21]: -0.11%
Pf_120h_%Growth_Rep1 [2, 22]: -0.53%
Pf_120h_%Growth_Rep2 [2, 23]: 18.12%
Tg_72h_%Growth_Rep1 [3, 24]: 1.61%
Tg_72h_%Growth_Rep2 [3, 25]: 2.90%

Cc1cc(O)c(C)c(O)c1C(=O)Oc1c(C)c(C)c(C(=O)Oc2c(C)c(C)c(C(=O)O)c(O)c2C)c(O)c1C [Thielavin A]
IC50 ([1]; 3D7, 72 h treatment, mean ± S.D., n ≥ 3, read-out: IC50 (μM), P. falciparum): > 1 µM
Pf_72h_%Growth_Rep1 [1, 4]: 46.40%
Pf_72h_%Growth_Rep2 [1, 5]: 70.42%
Pf_120h_%Growth_Rep1 [2, 6]: 119.92%
Pf_120h_%Growth_Rep2 [2, 7]: 51.57%
Tg_72h_%Growth_Rep1 [3, 8]: 89.38%
Tg_72h_%Growth_Rep2 [3, 9]: 91.04%

COc1cc(-c2oc3c(OC)c(OC)cc(O)c3c(=O)c2OC)ccc1O [Ternatin]
activity at 2 µg/mL [1, 10]: 64%
activity at 2 µg/mL [1, 11]: 81%
activity at 2 µg/mL [2, 12]: 137%
activity at 2 µg/mL [2, 13]: 71.9%
percent parasite growth at 2 µg/mL [3, 26]: 71.2%
percent parasite growth at 2 µg/mL [3, 27]: 66.7%
